In one data set the test system is Mus musculus. In words: Toxicity in DIO C57BL6 mouse assessed as body weight loss at 30 mg/kg, po administered qd from day 1 to 7 and bid from day 8 to 14 followed by single dose on day 15 morning. In kind it is organism-based. Further details: dose 30 mg/kg, route oral. The conditions noted are these: in vivo.
For data set [1], the species on record is Homo sapiens. In words: Reduction of triglyceride AUC in human relative to baseline. The format is functional. Further details: scale not given: the % may be the effect or the level left.
Data set [2] is filed under the species Homo sapiens. In words: Reduction of triglyceride AUC in human. The format is functional, organism-based.
The species entered for data set [3] is Homo sapiens. Briefly: Reduction of triglyceride AUC in human at 60 mg. Further details: scale not given: the % may be the effect or the level left. The format is functional.
For data set [4], the species on record is Homo sapiens. Briefly: Reduction of triglyceride AUC in human receiving 60% fat meal at >5 mg. In kind it is functional. Further details: scale not given: the % may be the effect or the level left.
Data set [5] is described as follows: Tmax in human. The conditions noted are these: in vivo. In kind it is ADME, organism-based.
In data set [6] the test system is Homo sapiens. In words: Reduction in triglycerides in familial chylomicronemia syndrome patients measured after 3 weeks of compound dosing. The format is functional. Further details: scale not given: the % may be the effect or the level left.

In the case of `CC1(C)Oc2ncnc(N)c2N=C1c1ccc([C@H]2CC[C@H](CC(=O)O)CC2)cc1`, the Activity in the data set with Mus musculus is given as 6.7%.
`Cc1nc(C)c(-c2ccc(C3CCC(CC(=O)O)CC3)cc2)nc1C(N)=O` (configuration not stated) [AZD-7687]: the Activity is on record as 84% in the data set listed under Homo sapiens [1], 50% in the data set listed under Homo sapiens [3] and over 75% in the data set listed under Homo sapiens [4]. In the data set filed under Homo sapiens [2], this molecule had an EC50 of 440 nM. The Tmax in data set [5] stood at 1 h.
`O=C(O)C[C@H]1CC[C@H](c2ccc(-c3ccc(Nc4ccc(C(F)(F)F)nc4)cn3)cc2)CC1` [PRADIGASTAT] showed an Activity in the data set with Homo sapiens [6] of 38.4%.

For orientation: EC50 means the midpoint of the concentration-response curve. As a reminder, the Tmax is the time at which the peak concentration occurs.
